Assay results published in patent US20120029167A1, “AUTO MAGNETIC METAL SALEN COMPLEX COMPOUND” (Yoshihiro Ishikawa, priority 2008, published 2012).

Experiments:
[1] = 37° C. (310K) magnetic field-magnetization curve using MPMS7 (Quantum Design); type: physicochemical; conditions: for magnetic field at which magnetization is greater in comparison to the Fe-salen / magnetic properties from magnetic field-magnetization curve: 37° C. (310K); for magnetization compared among Fe-, Mn-, Cr-, Co-salen: magnetic field 10000 Oe (1 T) or more
Protocol: As a result of measuring the 37° C.
The summary of the results of the 37° C. (310K) magnetic field-magnetization curve of the Fe-salen complex, the Mn-salen complex, the Cr-salen complex, and the Co-salen complex is shown in FIG. 4.
In comparison to the Fe-salen, the Co-salen yields greater magnetization at a magnetic field of 10000 Oe (1 T (tesla)) or more. In comparison to the Fe-salen, the Mn-salen yields greater magnetization at a magnetic field of 30000 Oe (3 T (tesla)) or more.
Nevertheless, if the magnetic field is 10000 Oe (1 T (tesla)) or more, the magnetization of the Co-salen and Mn-salen complex is the greatest and is optimal for a magnetic field drug delivery system which uses a superconducting magnet.

[2] = tested on: rat L6 cells; test: Rat L6 cell culture in square flask with magnet, number of cells after 48 hours; type: cell-based; conditions: powder sprinkled on culture medium, L6 cells confluent at 30%, bar magnet
Protocol: The respective metal salen complex powders of the Fe-salen complex, the Mn-salen complex, the Cr-salen complex, and the Co-salen complex obtained with the foregoing method were sprinkled on a culture medium in an amount that where such powder can be visually confirmed to be drawn to the magnet in a state where the rat L6 cells are confluent at 30%, and a photograph of the state of the culture medium after 48 hours was taken.
Subsequently, a photograph was taken from one end to the other end of the bottom face of the square flask after 48 hours, and the results of calculating the number of cells are shown in FIG. 6. […]
Shown is a state where the bar magnet was caused to come in contact with a square flask as the culture medium of the rat L6 cells. Subsequently, a photograph was taken from one end to the other end of the bottom face of the square flask after 48 hours, and the number of cells was calculated. […]
Shown is a state where the bar magnet was caused to come in contact with a square flask as the culture medium of the rat L6 cells. Subsequently, a photograph was taken from one end to the other end of the bottom face of the square flask after 48 hours, and the number of cells was calculated.

Structure (SMILES)	magnetic field at which magnetization is greater in comparison to the Fe-salen [1] [Oe]	magnetic properties from magnetic field-magnetization curve [1]	magnetization compared among Fe-, Mn-, Cr-, Co-salen [1]	number of cells proximal from the magnet versus distal [2]
Oc1ccccc1C=NCCN=Cc1ccccc1O.[Mn] [Mn-salen complex]	≥ 30000	paramagnetic properties were observed	the greatest	number of cells is extremely lower than the distal
[Cr+2].[O-]c1ccccc1C=NCCN=Cc1ccccc1[O-] [Cr-salen complex]	–	paramagnetic properties were observed	–	–
[Co+2].[O-]c1ccccc1C=NCCN=Cc1ccccc1[O-] [Co-salen complex]	≥ 10000	paramagnetic properties were observed	the greatest	–
